From PubChem BioAssay (NCI)
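Dose response: 5 concentrations. Exposure: 48 h. Format: 96-well plates. Endpoint: linear interpolation; highest concentration if not reached. The concentration for full growth arrest is given as TGI.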

Experiments:
Experiment in all cases: NCI anticancer screen, dose series, 48 h
[1] = tested on: HCC-2998 colon
[2] = tested on: A549 NSCLC
[3] = tested on: OVCAR-3 ovarian
[4] = tested on: BT-549 breast
[5] = tested on: PC-3 prostate
[6] = tested on: SR leukemia
[7] = tested on: SNB-19 CNS
[8] = tested on: SF-539 CNS
[9] = tested on: HL-60(TB) leukemia
[10] = tested on: NCI/ADR-RES ovarian
[11] = tested on: NCI-H522 lung
[12] = tested on: DU-145 prostate
[13] = tested on: MALME-3M melanoma
[14] = tested on: HCT-15 colon
[15] = tested on: SK-MEL-2 melanoma
[16] = tested on: MDA-MB-231 breast
[17] = tested on: SK-OV-3 ovarian
[18] = tested on: HOP-62 NSCLC
[19] = tested on: SW-620 colon
[20] = tested on: SF-295 CNS
[21] = tested on: COLO 205 colon
[22] = tested on: RXF 393 renal
[23] = tested on: HOP-92 NSCLC
[24] = tested on: RPMI-8226 leukemia
[25] = tested on: A498 renal
[26] = tested on: SN12C renal
[27] = tested on: NCI-H23 lung
[28] = tested on: TK-10 renal
[29] = tested on: SF-268 CNS
[30] = tested on: IGROV1 ovarian
[31] = tested on: SK-MEL-5 melanoma
[32] = tested on: UACC-62 melanoma
[33] = tested on: UACC-257 melanoma
[34] = tested on: NCI-H226 lung
[35] = tested on: MOLT-4 leukemia
[36] = tested on: OVCAR-5 ovarian
[37] = tested on: CAKI-1 renal
[38] = tested on: SNB-75 CNS
[39] = tested on: CCRF-CEM leukemia
[40] = tested on: HS 578T breast
[41] = tested on: UO-31 renal
[42] = tested on: MDA-N
[43] = tested on: KM12 colon
[44] = tested on: HCT-116 colon
[45] = tested on: MDA-MB-435
[46] = tested on: OVCAR-8 ovarian
[47] = tested on: U251 CNS
[48] = tested on: 786-0 renal
[49] = tested on: LOX IMVI melanoma
[50] = tested on: MCF7 breast
[51] = tested on: T-47D breast
[52] = tested on: OVCAR-4 ovarian
[53] = tested on: ACHN renal
[54] = tested on: EKVX NSCLC
[55] = tested on: HT29 colon
[56] = tested on: SK-MEL-28 melanoma
[57] = tested on: M14 melanoma
[58] = tested on: NCI-H460 lung
[59] = tested on: K-562 leukemia

CCC1CC(C)C(O)/C=C/C=C/CC(C)OC(=O)CC(O)C(OC)C1OC1OC(C)CC(O)(C(C)=O)C1O (configuration not stated)
TGI [1]: 66.5 µM | TGI [2]: > 100 µM | TGI [3]: > 100 µM | TGI [4]: > 100 µM | TGI [5]: > 100 µM | TGI [6]: 59.8 µM | TGI [7]: 79.5 µM | TGI [8]: > 100 µM | TGI [9]: 42.4 µM | TGI [10]: > 100 µM | TGI [11]: 51.4 µM | TGI [12]: > 100 µM | TGI [13]: > 100 µM | TGI [14]: > 100 µM | TGI [15]: > 100 µM | TGI [16]: 67.9 µM | TGI [17]: > 100 µM | TGI [18]: > 100 µM | TGI [19]: > 100 µM | TGI [20]: > 100 µM | TGI [21]: > 100 µM | TGI [22]: > 100 µM | TGI [23]: > 100 µM | TGI [24]: > 100 µM | TGI [25]: > 100 µM | TGI [26]: > 100 µM | TGI [27]: > 100 µM | TGI [28]: > 100 µM | TGI [29]: > 100 µM | TGI [30]: > 100 µM | TGI [31]: > 100 µM | TGI [32]: > 100 µM | TGI [33]: > 100 µM | TGI [34]: > 100 µM | TGI [35]: > 100 µM | TGI [36]: > 100 µM | TGI [37]: > 100 µM | TGI [38]: > 100 µM | TGI [39]: > 100 µM | TGI [40]: > 100 µM | TGI [41]: > 100 µM | TGI [42]: > 100 µM | TGI [43]: > 100 µM | TGI [44]: > 100 µM | TGI [45]: > 100 µM | TGI [46]: > 100 µM | TGI [47]: > 100 µM | TGI [48]: > 100 µM | TGI [49]: > 100 µM | TGI [50]: > 100 µM | TGI [51]: > 100 µM | TGI [52]: 42.8 µM | TGI [53]: > 100 µM | TGI [54]: > 100 µM | TGI [55]: > 100 µM | TGI [56]: > 100 µM | TGI [57]: > 100 µM

COC(=O)[C@@H]1C[C@@]23CCCN4CC[C@@]5(c6cccc(OC)c6N(C=O)[C@]15CC2)[C@@H]43
TGI [1]: > 100 µM | TGI [2]: > 100 µM | TGI [3]: > 100 µM | TGI [58]: > 100 µM | TGI [4]: > 100 µM | TGI [5]: > 100 µM | TGI [6]: > 100 µM | TGI [7]: > 100 µM | TGI [8]: > 100 µM | TGI [9]: > 100 µM | TGI [10]: > 100 µM | TGI [11]: > 100 µM | TGI [12]: > 100 µM | TGI [13]: > 100 µM | TGI [14]: > 100 µM | TGI [15]: > 100 µM | TGI [16]: > 100 µM | TGI [17]: > 100 µM | TGI [18]: > 100 µM | TGI [19]: > 100 µM | TGI [20]: > 100 µM | TGI [21]: > 100 µM | TGI [22]: > 100 µM | TGI [23]: > 100 µM | TGI [24]: > 100 µM | TGI [25]: > 100 µM | TGI [26]: > 100 µM | TGI [27]: > 100 µM | TGI [28]: > 100 µM | TGI [29]: > 100 µM | TGI [30]: > 100 µM | TGI [31]: > 100 µM | TGI [32]: > 100 µM | TGI [33]: > 100 µM | TGI [34]: > 100 µM | TGI [35]: > 100 µM | TGI [36]: > 100 µM | TGI [37]: > 100 µM | TGI [38]: > 100 µM | TGI [39]: > 100 µM | TGI [40]: > 100 µM | TGI [41]: > 100 µM | TGI [42]: > 100 µM | TGI [43]: > 100 µM | TGI [44]: > 100 µM | TGI [45]: > 100 µM | TGI [46]: > 100 µM | TGI [47]: > 100 µM | TGI [48]: > 100 µM | TGI [49]: > 100 µM | TGI [50]: > 100 µM | TGI [51]: > 100 µM | TGI [52]: > 100 µM | TGI [53]: > 100 µM | TGI [54]: > 100 µM | TGI [55]: > 100 µM | TGI [56]: > 100 µM | TGI [57]: > 100 µM

COc1ccc2c(c1)[C@@H]1c3cc(OC)c(OC)cc3CCN1CCC2
TGI [1]: > 100 µM | TGI [2]: > 100 µM | TGI [3]: > 100 µM | TGI [58]: > 100 µM | TGI [4]: > 100 µM | TGI [5]: > 100 µM | TGI [6]: > 100 µM | TGI [7]: > 100 µM | TGI [8]: > 100 µM | TGI [9]: > 100 µM | TGI [10]: > 100 µM | TGI [11]: > 100 µM | TGI [12]: > 100 µM | TGI [13]: > 100 µM | TGI [14]: > 100 µM | TGI [15]: > 100 µM | TGI [16]: > 100 µM | TGI [18]: > 100 µM | TGI [19]: > 100 µM | TGI [20]: > 100 µM | TGI [21]: > 100 µM | TGI [22]: > 100 µM | TGI [23]: > 100 µM | TGI [24]: > 100 µM | TGI [25]: > 100 µM | TGI [26]: > 100 µM | TGI [27]: > 100 µM | TGI [28]: > 100 µM | TGI [29]: > 100 µM | TGI [30]: > 100 µM | TGI [31]: > 100 µM | TGI [32]: > 100 µM | TGI [33]: > 100 µM | TGI [35]: > 100 µM | TGI [36]: > 100 µM | TGI [37]: > 100 µM | TGI [38]: > 100 µM | TGI [39]: > 100 µM | TGI [40]: > 100 µM | TGI [41]: > 100 µM | TGI [42]: > 100 µM | TGI [43]: > 100 µM | TGI [44]: > 100 µM | TGI [45]: > 100 µM | TGI [46]: > 100 µM | TGI [59]: > 100 µM | TGI [47]: > 100 µM | TGI [48]: > 100 µM | TGI [49]: > 100 µM | TGI [50]: > 100 µM | TGI [51]: > 100 µM | TGI [52]: > 100 µM | TGI [53]: > 100 µM | TGI [54]: > 100 µM | TGI [55]: > 100 µM | TGI [56]: > 100 µM | TGI [57]: > 100 µM
